# Reference: US20110091377A1, “BIOMARKERS FOR MELANOMA” (THE JOHNS HOPKINS UNIVERSITY, priority 2007, published 2011)
# Experiments:
# Type in all cases: cell-based, human
# MMP-1 [1] = test: MMP-1 ELISA of cell culture media after siRNA gene silencing
# Protocol: Cell culture media with no serum was added to the cell lines. After 72 hours, the media was collected and the protein concentration was determined using the Bio-Rad Protein Assay reagent (Bio-Rad Laboratories). The amount of human MMP-1 pro and active forms was determined using the RAYBIO Human MMP-1 ELISA kit (RayBiotech, Inc.) following the manufacturer's instructions. MMP-1 activity in the collected media was measured using the SensoLyte Plus™ 520 MMP-1 Assay Kit (AnaSpec) following the manufacturer's protocol including the step to add 4-aminophenylmecuric acetate (APMA) to the samples in order to activate all the pro-MMP-1.
# MMP-1 [2] = test: Semi-quantitative duplex RT-PCR of MMP-1 after siRNA gene silencing; conditions: 24 hours after transfection
# Protocol: (§1) The MMP-1 siRNA (5′-gagcaagatgtggacttag-3′) and scrambled siRNA (5′-gattcaggtgtagaacgag-3′) sequences were designed using Dharmacon siDESIGN Center. Transfection of the siRNAs was performed using 2 μL of DharmaFECT 1 transfection reagent (Dharmacon) and 100 nM of MMP-1 siRNA and scrambled siRNA for the WM852 cell line and 250 nM for the WM793 cell line. Cells were collected and pelleted 24 hours after transfection for RNA extraction using the RNeasy Mini Kit ([…]), cDNA production by using SUPERSCRIPT First-Strand Synthesis System for RT-PCR according to manufacturer's instructions (Invitrogen), and semi-quantitative duplex PCR to confirm MMP-1 knockdown.
# Semi-quantitative duplex RT-PCR was performed by a MJ Research Programmable Thermal Controller (PTC-100, Inc.) and the amplified products were separated on an agarose gel. The duplex PCR utilized 20 by oligonucleotides to amplify regions of ˜350 by from MMP-1. Optimization experiments were conducted to determine a favorable primer concentration for the GAPDH internal control. The following primer oligonucleotides were used: MMP-1 forward (5′-[…]-3′), MMP-1 reverse (5′-[…]-3′), GAPDH forward (5′-[…]-3′), and GAPDH reverse (5′-[…]-3′). The PCR was carried out in a total volume of 25 uL, containing 2.5 uL of 10×PCR Buffer (containing 15 mM MgC12), 0.2 mM dNTPs, and 0.3 ul AmpliTaq Gold DNA Polymerase (Applied Biosystems). […]
# [3] = test system: WM793 (BRAF V600E melanoma); test: 3H-thymidine cell proliferation assay, WM793; conditions: BRAF mutant melanoma (WM793), 250 nM siRNA
# Protocol: as §1
# (§2) WM852 and WM793 cell lines were seeded at 15,000 cells per well into a 96-well tissue culture plate (Becton Dickinson) 24 hours after siRNA transfection. Twenty-two hours later, 10 μL of 0.1 μCi/μL ^3H-thymidine (Perkin Elmer) was added to each well. After 4 hours, the cells were washed with PBS and 50 μL of trypsin was added into each well for 10 minutes. The trypsinized cells were harvested to a filtermat using the Perkin Elmer FilterMate cell harvester (Perkin Elmer). The dried filtermat was sealed in a sample bag with 4 mL of scintillation fluid and then read on a Perkin Elmer 1450 Microbeta Liquid Scintillator (Perkin Elmer).
# [4] = test system: WM852 (wildtype BRAF melanoma); test: 3H-thymidine cell proliferation assay, WM852; conditions: 100 nM siRNA
# Protocol: as §1, §2
substance,measurement,setting,value
5′-gagcaagatgtggacttag-3′ [MMP-1 siRNA],secreted MMP-1 protein levels from conditioned media,"MMP-1 [1]; WM793, BRAF V600E",efficiently downregulated
same,secreted MMP-1 protein levels from conditioned media,"MMP-1 [1]; WM852, wildtype BRAF",efficiently downregulated
same,MMP-1 transcript levels,"MMP-1 [2]; WM793, BRAF V600E, 250 nM siRNA",efficiently downregulated
same,MMP-1 transcript levels,"MMP-1 [2]; WM852, wildtype BRAF, 100 nM siRNA",efficiently downregulated
same,cell growth inhibition versus control siRNA,[3],80%
same,cell growth inhibition versus control siRNA,[4],17%
